From the supplement of paper PMC10307832

Key:
Assay in all cases: relative viability (nuclei count vs DMSO), 5 days (fraction); higher = more cells survive
[1] = compound: C1COCCN1C2=NC(=NC3=C2OC4=C3C=CC=N4)C5=CC(=CC=C5)NC(=O)C6=CN=C(C=C6)N + Cc1nc(NC(=O)N2CCC[C@H]2C(N)=O)sc1-c1ccnc(C(C)(C)C(F)(F)F)c1 [Alpelisib] (partner 2 µM)
Procedure, shortened: (§1)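 Relative viability equals treated-well nuclei counts divided by vehicle-well nuclei counts. Counts came from 4× images of lung cancer cell lines grown in 1536-well plates for 5 days after pin-tool dosing on the day after seeding. Dosing used one drug alone or a fixed anchor-drug dose plus five library-drug doses (not always all listed) in √10 steps, and values are medians of duplicate plates.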

SGI-1776 + Crizotinib = compound: CN1CCC(CNc2ccc3ncc(-c4cccc(OC(F)(F)F)c4)n3n2)CC1 [SGI-1776] + C[C@@H](Oc1cc(-c2cnn(C3CCNCC3)c2)cnc1N)c1c(Cl)ccc(F)c1Cl [Crizotinib] (partner 1 µM)
Procedure, shortened: as §1

SGI-1776 + Alpelisib = compound: CN1CCC(CNc2ccc3ncc(-c4cccc(OC(F)(F)F)c4)n3n2)CC1 [SGI-1776] + Cc1nc(NC(=O)N2CCC[C@H]2C(N)=O)sc1-c1ccnc(C(C)(C)C(F)(F)F)c1 [Alpelisib] (partner 2 µM)
Procedure, shortened: as §1

Entinostat + Alpelisib = compound: Nc1ccccc1NC(=O)c1ccc(CNC(=O)OCc2cccnc2)cc1 [Entinostat] + Cc1nc(NC(=O)N2CCC[C@H]2C(N)=O)sc1-c1ccnc(C(C)(C)C(F)(F)F)c1 [Alpelisib] (partner 2 µM)
Procedure, shortened: as §1

Row | Cell Line | relative viability ([1]; first compound 0.02 µM) | relative viability ([1]; first compound 0.06325 µM) | relative viability ([1]; first compound 0.2 µM) | relative viability ([1]; first compound 0.6325 µM) | relative viability ([1]; first compound 2 µM) | relative viability (SGI-1776 + Crizotinib; first compound 0.08 µM) | relative viability (SGI-1776 + Crizotinib; first compound 0.8 µM) | relative viability (SGI-1776 + Crizotinib; first compound 2.53 µM) | relative viability (SGI-1776 + Crizotinib; first compound 8 µM) | relative viability (SGI-1776 + Alpelisib; first compound 0.08 µM) | relative viability (SGI-1776 + Alpelisib; first compound 0.8 µM) | relative viability (SGI-1776 + Alpelisib; first compound 2.53 µM) | relative viability (SGI-1776 + Alpelisib; first compound 8 µM) | relative viability (Entinostat + Alpelisib; first compound 0.02 µM) | relative viability (Entinostat + Alpelisib; first compound 0.06325 µM) | relative viability (Entinostat + Alpelisib; first compound 0.2 µM) | relative viability (Entinostat + Alpelisib; first compound 0.6325 µM) | relative viability (Entinostat + Alpelisib; first compound 2 µM)
1 | 201T | 1.03 | 1.03 | 0.926 | 0.96 | 0.966 | 1.05 | 1.04 | 1.01 | 1.01 | 1.02 | 1.03 | 1.08 | 0.999 | 1.01 | 1.08 | 1.02 | 0.859 | 0.525
2 | A549 | 0.64 | 0.793 | 0.644 | 0.63 | 0.346 | 0.789 | 0.843 | 0.553 | 0.138 | 0.787 | 0.701 | 0.852 | 0.394 | 0.851 | 0.729 | 0.704 | 0.515 | 0.238
3 | A-427 | 1.13 | 1.11 | 1.04 | 0.907 | 0.798 | 0.849 | 0.92 | 0.974 | 0.601 | 1.16 | 1.14 | 1.12 | 1.02 | 1.01 | 1.1 | 1.05 | 0.943 | 0.845
4 | ABC-1 | 1.03 | 1.05 | 0.981 | 0.971 | 0.695 | 0.989 | 1.17 | 0.707 | 0.317 | 1.12 | 0.977 | 1.06 | 0.948 | 0.949 | 1.14 | 0.966 | 0.661 | 0.48
5 | BEN | 1.07 | 1.04 | 1.01 | 0.931 | 0.613 | 0.799 | 0.851 | 0.844 | 0.628 | 0.957 | 1.01 | 0.896 | 0.699 | 1.21 | 0.944 | 1.02 | 0.6 | 0.275
6 | CAL-12T | 1.26 | 1.29 | 1.26 | 1.15 | 0.537 | 0.682 | 0.327 | 0.254 | 0.232 | 1.23 | 1.37 | 1.66 | 1.08 | 1.22 | 1.18 | 1.41 | 1.08 | 0.962
7 | COR-L23 | 0.958 | 0.876 | 0.844 | 0.868 | 0.589 | 0.821 | 0.491 | 0.519 | 0.495 | 0.935 | 0.697 | 0.743 | 0.521 | 0.658 | 0.632 | 0.547 | 0.321 | 0.175
8 | COR-L 105 | 0.912 | 1.02 | 0.801 | 0.705 | 0.583 | 1.03 | 0.717 | 0.464 | 0.287 | 1.13 | 1.05 | 1.03 | 0.759 | 0.842 | 0.925 | 0.844 | 0.608 | 0.345
9 | Calu-6 | 1.09 | 0.979 | 0.882 | 0.936 | 0.721 | 0.806 | 0.624 | 0.402 | 0.289 | 1.01 | 0.955 | 1.23 | 0.628 | 1.01 | 1.06 | 0.941 | 0.624 | 0.457
10 | ChaGo-K-1 | – | – | – | – | – | 1.16 | 1.12 | 1.13 | 0.362 | – | – | – | – | – | – | – | – | –
11 | EBC-1 | 0.653 | 0.728 | 0.742 | 0.713 | 0.478 | 0.21 | 0.175 | 0.186 | 0.123 | 0.888 | 0.78 | 0.903 | 0.434 | 0.832 | 0.984 | 0.542 | 0.179 | 0.116
12 | EKVX | 0.838 | 0.787 | 0.94 | 0.867 | 0.572 | 0.847 | 1.01 | 0.977 | 0.882 | 0.885 | 0.933 | 0.869 | 0.72 | 0.942 | 0.989 | 0.771 | 0.48 | 0.317
13 | EMC-BAC-2 | 0.794 | 0.867 | 0.785 | 0.707 | 0.589 | 0.838 | 0.7 | 0.701 | 0.461 | 0.741 | 0.703 | 0.802 | 0.723 | 0.797 | 0.795 | 0.776 | 0.636 | 0.394
14 | EPLC-272H | 0.972 | 0.883 | 0.974 | 0.967 | 0.673 | 0.832 | 0.891 | 0.909 | 0.772 | 0.943 | 0.952 | 1.16 | 0.804 | 0.955 | 0.998 | 0.795 | 0.526 | 0.38
15 | H3255 | 0.577 | 0.714 | 0.628 | 0.693 | 0.483 | 1.03 | 1.01 | 0.896 | 0.62 | 0.65 | 0.747 | 0.611 | 0.38 | 0.637 | 0.594 | 0.548 | 0.363 | 0.289
16 | HARA | 0.927 | 0.946 | 0.922 | 0.743 | 0.436 | 1.17 | 1.17 | 1.01 | 0.775 | 1.01 | 0.935 | 0.803 | 0.678 | 0.819 | 0.861 | 0.658 | 0.582 | 0.484
17 | HCC-15 | 0.901 | 0.848 | 0.843 | 0.827 | 0.637 | 0.819 | 0.816 | 0.761 | 0.764 | 0.912 | 0.836 | 0.895 | 0.71 | 0.86 | 0.919 | 0.705 | 0.488 | 0.243
18 | HCC-44 | 0.803 | 0.879 | 1.04 | 0.807 | 0.499 | 0.818 | 0.828 | 0.867 | 0.764 | 0.88 | 0.876 | 0.733 | 0.571 | 0.778 | 0.588 | 0.46 | 0.329 | 0.187
19 | HCC-78 | 0.34 | 0.331 | 0.378 | 0.324 | 0.318 | 0.352 | 0.311 | 0.346 | 0.318 | 0.37 | 0.333 | 0.315 | 0.248 | 0.342 | 0.32 | 0.238 | 0.133 | 0.104
